Measured values taken from paper PMC8453745, “Human Mass Balance and Metabolite Profiling of [^14C]‐Pamiparib, a Poly (ADP‐Ribose) Polymerase Inhibitor, in Patients With Advanced Cancer” (Clinical Pharmacology in Drug Development, 2021).
Where “and” joins values, the source holds several entries; their conditions need not be identical. Equal values may be shown once. Read-outs that look alike come from different tables or passages of the source.

What was measured:
[1] = system: Chinese hamster ovary cells; parameters: method as in data on file; details: in vitro chromosomal aberration assay, CHO cells; ref data on file; cited from earlier work
[2] = mass balance: recovery of radioactivity in urine and feces; assay type: in vivo, human
Excerpt: (§1) Part 1 of the study included a screening phase of up to 28 days prior to drug administration to assess eligibility. Patients were admitted to the clinical research unit (CRU) at Royal Liverpool University Hospital (Liverpool, UK)/Clatterbridge Cancer Centre NHS Foundation Trust (Bebington, Wirral, UK) on day −1 and received a single dose of 60‐mg/100 μCi [^14C]‐pamiparib orally the morning of day 1. Patients remained in the CRU until completion of assessments on day 7, when discharge criteria of ≈90% of the radioactive dose being recovered or <1% of the radioactive dose being recovered in urine and feces for 2 consecutive 24‐hour collection intervals were met. If discharge criteria were not met by day 7, patients collected 24‐hour excreta samples up to day 14 on an outpatient basis. Part 2 of the study, evaluating the safety/tolerability and antitumor activity of 60 mg twice‐daily pamiparib in patients with advanced and/or metastatic solid tumors, is ongoing and is not included in this report.
Total radioactivity concentrations of [^14C]‐pamiparib in whole blood, plasma, urine, and feces were determined by liquid scintillation counting (LSC). Radioactivity in each sample was measured for 5 minutes using a Packard Tri‐Carb liquid scintillation counter model 2100TR, 2900TR, or 3100TR (Canberra Packard, Pangbourne, Berks, Australia) with the facilities for computing quench‐corrected disintegrations per minute. Metabolite identification in plasma, urine, and feces was conducted by LC‐MS. Quantitation of the metabolites present in plasma, urine, and feces was based on the profiles of radioactivity. The limit of quantitation for radioactivity in plasma, urine, and feces was set at 1% of each chromatographic analysis (run) and 10 counts per minute (cpm) peak height; therefore, radioactive peaks that were <1% of the total run or <10 cpm peak height were reported as not detected. […]
Each aliquot of urine (about 1 mL, weighed) was added directly to liquid scintillant prior to LSC. […] The radioactivity in each pooled sample was determined by LSC. […]

[3] = parameters: method as in data on file; details: suspension in water, room temperature; ref data on file; cited from earlier work
[4] = plasma pamiparib pharmacokinetics in patients (LC‐MS/MS); assay type: in vivo, human; details: for Cmax / half-life: plasma, po
Excerpt: as §1
Patients fasted overnight and 2 hours after oral administration of a single 60‐mg dose containing ≈100 μCi (3.7‐3.9 MBq) of [^14C]‐pamiparib with ≈240 mL of room‐temperature water or juice (orange or grape). The residual radioactivity present in each vial postdose was corrected from the dose. The radioactive dose of 100 μCi of [^14C]‐pamiparib provided minimum risk to patients according to the dosimetry calculation from a quantitative whole‐body autoradiography study in male and female Long Evans rats; the dose also provided sufficient signal for total radioactivity counting and quantitative radioprofiling in blood, plasma, and excreta (data on file). Patients were not permitted to lie in the supine position for 2 hours after drug administration, except if required because of an adverse event (AE) and/or study procedure.
Total radioactivity was analyzed at Covance Laboratories (Harrogate, North Yorkshire, UK), and metabolite profiling was conducted at Covance Laboratories (Madison, Wisconsin). Determination of pamiparib concentrations in plasma and total radioactivity in plasma and whole blood was performed predose and 0.25, 0.5, 1, 1.5, 2, 2.5, 3, 6, 12, 24, 48, 72, 96, 120, and 144 hours postdose. Pamiparib concentrations in plasma and urine were determined at Covance Laboratories (Salt Lake City, Utah) with validated liquid chromatography‐tandem mass spectrometry (LC‐MS/MS) methods.
An aliquot of human plasma (25 μL) containing dipotassium ethylenediaminetetraacetic acid as anticoagulant or urine (25 μL) was added with the internal standard (20.0 μL of 400 ng/mL BGB‐326) in water:ACN (50:50 v/v) followed by the addition of water:ACN (50:50 v/v, 20.0 μL). The plasma samples were centrifugated and vortexed followed by the addition of 200 μL of 5% NH4OH and 100 μL of water. After centrifugation, the supernatant (50 μL) was loaded to Biotage Isolute supported liquid extraction plate (Biotage, Holliston, Massachusetts) and eluted with methyl tert‐butyl ether (700 μL). The eluted samples were dried down at 45°C in TurboVap for 30 minutes and reconstituted in 400 μL of water:MeOH (80:20 v/v), followed by LC‐MS/MS analysis. The urine samples were centrifuged and vortexed followed by the addition of 200 μL of ACN. After centrifugation, 100 μL of the samples was transferred to a plate followed by the addition of 300 μL of water. The samples were centrifugated again before LC‐MS/MS analysis. The LC‐MS/MS instrumentation was the same for plasma and urine analysis including a LEAP autosampler (LEAP Technologies, Chapel Hill, North Carolina), a Shimadzu SCL‐10A controller with LC‐10AD pump (Shimadzu, Columbia, Maryland), and a Sciex API 5000 mass spectrometer (Sciex, Framingham, Massachusetts) equipped with a XBridge Phenyl column (2.1 × 50 mm, 5 μm; Waters, Pleasanton, California). The mobile phase A is 10 mM ammonium formate in water, and mobile phase B is MeOH:ACN (50:50 v/v). […]

[5] = single oral 60 mg/100 μCi, n = 4

## C[C@]12CCCN1CC1=NNC(=O)c3cc(F)cc4[nH]c2c1c34 [Pamiparib]
[1]
  clastogenic activity: clastogenic activity
[2]; 192‐hour collection period
  administered radioactivity excreted in the feces: 26.9% ± 6.8%
[2]; 192‐hour collection period, mean ± SD, n = 4
  overall mean total recovery of radioactivity in urine and feces: 84.7% ± 3.5%
[2]; individual subjects
  mass balance achieved for all 4 subjects: higher than 80%
[3]
  chemical stability and radiopurity of the suspension established for: 48 h
[4]
  geometric coefficient of variation of parent AUCs among 4 subjects: < 22%
[4]; human, oral, 60 mg, as printed in discussion, read-out: AUC0‐t, geometric mean (LC‐MS/MS)
  AUC: 29200 ng·h/mL
[4]; human, 60 mg, single oral 60 mg/100 μCi, n = 4, read-out: Cmax, arithmetic mean (SD)
  Cmax: 2210 ng/mL
[4]; human, 60 mg, single oral 60 mg/100 μCi, n = 4, read-out: Cmax, geometric mean (CV%)
  Cmax: 2190 ng/mL
[4]; human, 60 mg, single oral 60 mg/100 μCi, n = 4, read-out: t1/2, arithmetic mean (SD) (converted)
  half-life: 29.2 h
[4]; human, 60 mg, single oral 60 mg/100 μCi, n = 4, read-out: t1/2, geometric mean (CV%) (converted)
  half-life: 28.7 h
[4]; human, single oral 60 mg/100 μCi, n = 4, read-out: tmax, median (min, max)
  Tmax: 2 h
[4]; [5]
  CL/F, arithmetic mean (SD): 2.25 (0.55) L/h
  CL/F, geometric mean (CV%): 2.21 (23.2) L/h
[4]; single oral 60 mg/100 μCi, n = 4, listed as pamiparib
  CL/F, geometric mean (CV%): ≈ 2.2 L/h and 2.21 L/h
